Data on 21 compounds can be found in patent US12071424B2, “IRE1 small molecule inhibitors” (Cornell University, priority 2017, dated 2024).

Some results are limits rather than exact numbers.

Broadly, the IC50 is the concentration needed to halve the response being measured. In general, EC50 refers to the concentration at which the effect is half-maximal.

The target in test [1] is T1, IRE1a (Homo sapiens, UniProt O75460).
T1 construct: purchased SignalChem
Nature of the test: In vitro FRET assay (IRE1a cleavage of XBP1 RNA probe). Type of test: biochemical. As to conditions: 2 nM SignalChem IRE1a, tested as Formic Acid Salt (37: HCl Salt). The protocol:
In vitro FRET assay was performed to evaluate the ability of select compounds to inhibit IRE1, the results of which are summarized in Table 3. To perform the in vitro FRET assay, 1× complete assay buffer (CAB: […], 50 mM sodium citrate pH 7.15, 1 mM magnesium acetate, 0.02% tween 20) was used to SignalChem IRE1a protein to a final concentration of 2 nM. Selected compounds were serially diluted with DMSO in a non-binding black 384-well plate for a total of 15 ul in each well. 2 ul of the serially diluted compound or DMSO control were then added to new wells containing 98 ul of 1× CAB, for a total volume of 100 ul, 10 ul of which were then transferred to wells of a new plate. 5 ul of the diluted IRE1a was then added to each well. 5 ul of a […] XBP1 RNA probe was then added to each well. Fluorescence was then read over 30 minutes in kinetic mode (485/515 nm).
Two RNA probes were used, XBP1 wildtype (SEQ ID NO: 2) which is able to be spliced by active IRE1a or XBP1 mutant (SEQ ID NO: 3) which is unable to be spliced. Each probe contained a 5′ 6-FAM modification and a 3′ IOWA black FQ modification. […]

In test [2] the test system is IRE1a. Description: IRE1a Endoribonuclease Nanoluciferase Assay (XBP1 luciferase reporter in 293T cells). Conditions: Homo sapiens, HEK-293T, ER stressor, tested as Formic Acid Salt (37: HCl Salt). It is filed as cell-based, human. The protocol:
Compounds disclosed herein assessed for disruption of IRE1 signaling using a IRE1a Endoribonuclease Nanoluciferase Assay. Briefly, 25×10^5 293T cells were seeded in a 10 cm^2 tissue culture plate. About 24 hours later, the cells were transfected with Effectene. In a 15 mL tube, the following was added: 2 ug XBP1 luciferase reporter plasmid (PGK-Luc2-P2A-XBP1u-Nanoluciferase-Pest); 300 ul EC buffer; and 16 ul Enhancer, followed by incubation at room temp for 5 minutes. Next, 60 ul Effectene (Qiagen 301427) was added, followed by incubation at room temperature for 10 minutes. 2.6 mL cDMEM media was added. Old media was aspirated from the cells, followed by addition of 7 mL fresh media. Full transfection mixture was added dropwise to cells. Cells were incubated for 6 hours, followed by trypsinization, centrifugation and resuspension in 11 mL fresh cDMEM media. 100 uL of cells were plated per a well in a 96 well plate. A day later, ER stressors of choice +/−inhibitors were added. To harvest, media was aspirated from cells completely, then 50 uL 1× passive lysis buffer (Promega: E1941) was added per well and put on shaker (300 rpm) for 30 minutes at room temperature. Cells were centrifuged, and 15 uL sample per well was added to a new, opaque white 384 well plate (Corning 3570). 15 uL OneGlo (nanoluciferase kit, Promega N1630) was added. Plates were spun down, placed on shaker (300 rpm) for 10 minutes. Plates were read on luminometer, 1000 ms integration time per well. 15 uL Stop an Glo (nanoluciferase kit) was added. Plates were spun down, placed on shaker (300 rpm) for 10 minutes. Plates were read on luminometer, 1000 ms second integration time per well. Recordings are provided below in Table 4.

T1 sequence (O75460 19-977): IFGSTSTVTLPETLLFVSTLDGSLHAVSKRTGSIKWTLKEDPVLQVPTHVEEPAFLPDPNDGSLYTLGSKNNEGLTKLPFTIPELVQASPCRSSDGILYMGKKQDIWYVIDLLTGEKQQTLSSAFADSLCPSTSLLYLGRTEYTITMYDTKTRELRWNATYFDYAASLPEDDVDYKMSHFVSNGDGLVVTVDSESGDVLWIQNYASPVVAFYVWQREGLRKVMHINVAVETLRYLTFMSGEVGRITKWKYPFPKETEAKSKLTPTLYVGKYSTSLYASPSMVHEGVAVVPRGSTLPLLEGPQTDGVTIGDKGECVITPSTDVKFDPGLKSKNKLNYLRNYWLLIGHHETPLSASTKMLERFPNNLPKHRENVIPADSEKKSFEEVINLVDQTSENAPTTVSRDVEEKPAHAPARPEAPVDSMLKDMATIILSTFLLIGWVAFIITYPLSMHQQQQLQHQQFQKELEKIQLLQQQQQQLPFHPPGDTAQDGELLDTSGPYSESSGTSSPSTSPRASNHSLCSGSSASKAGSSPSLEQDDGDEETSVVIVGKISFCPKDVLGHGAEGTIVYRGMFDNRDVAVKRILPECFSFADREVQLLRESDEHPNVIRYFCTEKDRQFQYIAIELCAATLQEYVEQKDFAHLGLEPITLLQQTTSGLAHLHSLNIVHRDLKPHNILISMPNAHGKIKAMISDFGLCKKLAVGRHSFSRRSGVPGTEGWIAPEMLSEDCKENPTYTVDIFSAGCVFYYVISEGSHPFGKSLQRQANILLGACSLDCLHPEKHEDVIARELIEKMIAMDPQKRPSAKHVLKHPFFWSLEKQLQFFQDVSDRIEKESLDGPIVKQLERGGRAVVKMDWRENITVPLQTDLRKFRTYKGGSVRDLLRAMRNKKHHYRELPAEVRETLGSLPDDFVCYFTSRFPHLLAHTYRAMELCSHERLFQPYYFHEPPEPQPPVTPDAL

`N[C@H]1CC[C@H](Nc2ncc3cc(-c4cc(F)c(NS(=O)(=O)c5ccccc5Cl)cc4F)ccc3n2)CC1` [Compound 53, N-(4-(2-(((1r,4r)-4-aminocyclohexyl)amino)quinazolin-6-yl)-2,5-difluorophenyl)-2-chlorobenzene-sulfonamide]: in test [1], the IC50 was at most 5 nM. In addition, the EC50 in test [2] is at most 5 nM.
For the compound `N[C@H]1CC[C@H](Nc2ncc3cc(-c4ccc(NS(=O)(=O)c5ccccc5Cl)cc4)ccc3n2)CC1` [Compound 26, N-(4-(2-(((1r,4r)-4-aminocyclohexyl)amino)quinazolin-6-yl)phenyl)-2-chlorobenzene-sulfonamide], the concentration for half-maximal inhibition (IC50) in test [1] was at most 5 nM. Besides, in test [2], the EC50 is at most 5 nM.
Regarding `CCc1cc(-c2ccc(NS(=O)(=O)c3ccccc3Cl)c(F)c2)cc2cnc(N[C@@H]3CC[C@@H](N)C3)nc12` [Compound 78, N-(4-(2-(((1R,3R)-3-aminocyclopentyl)amino)-8-ethylquinazolin-6-yl)-2-fluorophenyl)-2-chlorobenzene-sulfonamide], the half-inhibitory concentration (IC50) in test [1] was at most 5 nM. Further, the EC50 in test [2] was at most 5 nM.
As to `CCc1cc(-c2ccc(NS(=O)(=O)c3cccc(Cl)c3Cl)nc2C)cc2cnc(N[C@H]3CC[C@H](N(C)C)CC3)nc12` [Compound 152, 2,3-dichloro-N-(5-(2-(((1r,4r)-4-(dimethylamino)cyclohexyl)amino)-8-ethylquinazolin-6-yl)-6-methylpyridin-2-yl)benzenesulfonamide], the IC50 in test [1] was at most 5 nM. In addition, the EC50 in test [2] was at most 5 nM.
As to `CCc1cc(-c2cc(F)c(NS(=O)(=O)c3ccccc3Cl)nc2C)cc2cnc(N[C@H]3CC[C@H](N(C)C)CC3)nc12` [Compound 97, 2-chloro-N-(5-(2-(((1r,4r)-4-(dimethylamino)cyclohexyl)amino)-8-ethylquinazolin-6-yl)-3-fluoro-6-methylpyridin-2-yl)benzenesulfonamide], the concentration for half-maximal inhibition (IC50) in test [1] is at most 5 nM. In addition, in test [2], the EC50 is at most 5 nM.
Turning to `COc1nc(NS(=O)(=O)c2ccccc2Cl)ccc1-c1cc2cnc(N[C@H]3CC[C@H](N(C)C)CC3)nc2cc1C` [Compound 108, 2-chloro-N-(5-(2-(((1r,4r)-4-(dimethylamino)cyclohexyl)amino)-7-methylquinazolin-6-yl)-6-methoxypyridin-2-yl)benzenesulfonamide], in test [1], the 50% inhibitory concentration (IC50) is at most 5 nM. Besides, the EC50 in test [2] is at most 5 nM.
Turning to `CCc1cc(-c2cnc(NS(=O)(=O)c3ccccc3Cl)c(F)c2)cc2cnc(N[C@H]3CC[C@H](N(C)C)CC3)nc12` [Compound 95, 2-chloro-N-(5-(2-(((1r,4r)-4-(dimethylamino)cyclohexyl)amino)-8-ethylquinazolin-6-yl)-3-fluoropyridin-2-yl)benzenesulfonamide], the IC50 in test [1] was at most 5 nM. Further, the EC50 in test [2] is at most 5 nM.
For `N[C@@H]1CC[C@@H](Nc2ncc3cc(-c4ccc(NS(=O)(=O)c5ccccc5Cl)c(F)c4)ccc3n2)C1` [Compound 77, N-(4-(2-(((1R,3R)-3-aminocyclopentyl)amino)quinazolin-6-yl)-2-fluorophenyl)-2-chlorobenzene-sulfonamide], the IC50 in test [1] was at most 5 nM. Also, the EC50 in test [2] was 5 to 50 nM.
For `NC12CCC(Nc3ncc4cc(-c5ccc(NS(=O)(=O)c6ccccc6Cl)c(F)c5)ccc4n3)(CC1)C2` [Compound 86], in that order: at most 5 nM and 50 to 100 nM.
With `CCc1cc(-c2cc(F)c(NS(=O)(=O)c3ccccc3Cl)nc2OC)cc2cnc(N[C@H]3CC[C@H](N(C)C)CC3)nc12` [Compound 128, 2-chloro-N-(5-(2-(((1r,4r)-4-(dimethylamino)cyclohexyl)amino)-8-ethylquinazolin-6-yl)-3-fluoro-6-methoxypyridin-2-yl)benzenesulfonamide], in test [1], the IC50 was at most 5 nM. For the same compound, the EC50 in test [2] was at most 5 nM.
In the case of `CN[C@H]1CC[C@H](Nc2ncc3cc(-c4cc(F)c(NS(=O)(=O)c5ccccc5Cl)nc4OC)ccc3n2)CC1` [Compound 150, 2-chloro-N-(3-fluoro-6-methoxy-5-(2-(((1r,4r)-4-(methylamino)cyclohexyl)amino)quinazolin-6-yl)pyridin-2-yl)benzenesulfonamide], the IC50 in test [1] is at most 5 nM. The EC50 in test [2] lay within 5 to 50 nM.
As to `COc1nc(NS(=O)(=O)c2ccccc2Cl)ccc1-c1cc(F)c2nc(N[C@H]3CC[C@H](N(C)C)CC3)ncc2c1` [Compound 148, 2-chloro-N-(5-(2-(((1r,4r)-4-(dimethylamino)cyclohexyl)amino)-8-fluoroquinazolin-6-yl)-6-methoxypyridin-2-yl)benzenesulfonamide], the IC50 in test [1] is at most 5 nM. For the same compound, in test [2], the EC50 was at most 5 nM.
As for `N[C@H]1CC[C@H](Nc2ncc3cc(-c4c(F)cc(NS(=O)(=O)c5ccccc5Cl)cc4F)ccc3n2)CC1` [Compound 62, N-(4-(2-(((1r,4r)-4-aminocyclohexyl)amino)quinazolin-6-yl)-3,5-difluorophenyl)-chlorobenzene-sulfonamide], the IC50 in test [1] is at most 5 nM. Further, the EC50 in test [2] fell in the range of 5 to 50 nM.
Consider `COc1nc(NS(=O)(=O)c2ccccc2Cl)c(F)cc1-c1cc(C)c2nc(N[C@H]3CC[C@H](N(C)C)CC3)ncc2c1` [Compound 145, 2-chloro-N-(5-(2-(((1r,4r)-4-(dimethylamino)cyclohexyl)amino)-8-methylquinazolin-6-yl)-3-fluoro-6-methoxypyridin-2-yl)benzenesulfonamide], for which the IC50 in test [1] was at most 5 nM. Besides, the EC50 in test [2] is at most 5 nM.
On to `N[C@H]1CC[C@H](Nc2cc3ccc(-c4ccc(NS(=O)(=O)c5ccccc5Cl)c(F)c4)cc3cn2)CC1` [Compound 57, N-(4-(3-(((1r,4r)-4-aminocyclohexyl)amino)isoquinolin-7-yl)-2-fluorophenyl)-2-chlorobenzene-sulfonamide], for which the IC50 in test [1] is at most 5 nM. In addition, the EC50 in test [2] was at most 5 nM.
Turning to `COc1nc(NS(=O)(=O)c2ccccc2Cl)c(F)cc1-c1ccc2nc(N[C@H]3CC[C@H](N(C)C)CC3)ncc2c1` [Compound 149, 2-chloro-N-(5-(2-(((1r,4r)-4-(dimethylamino)cyclohexyl)amino)quinazolin-6-yl)-3-fluoro-6-methoxypyridin-2-yl)benzenesulfonamide], the half-inhibitory concentration (IC50) in test [1] is at most 5 nM. Also, in test [2], the EC50 fell in the range of 5 to 50 nM.
As for `CCc1cc(-c2ccc(NS(=O)(=O)c3ccccc3Cl)nn2)cc2cnc(N[C@H]3CC[C@H](N(C)C)CC3)nc12` [Compound 64], the IC50 in test [1] is at most 5 nM. In addition, the EC50 in test [2] is at most 5 nM.
With `CCc1cc(-c2ccc(NS(=O)(=O)c3ccccc3Cl)nc2OC)cc2cnc(N[C@H]3CC[C@@H](N(C)C)CC3)nc12` [Compound 141, 2-chloro-N-(5-(2-(((1s,4s)-4-(dimethylamino)cyclohexyl)amino)-8-ethylquinazolin-6-yl)-6-methoxypyridin-2-yl)benzenesulfonamide], the IC50 in test [1] was at most 5 nM. In test [2], the EC50 is 100 to 10000 nM.
For `CCc1cc(-c2ccc(NS(=O)(=O)c3ccccc3Cl)c(F)c2)cc2cnc(NC34CCC(N)(CC3)CC4)nc12` [Compound 87, N-(4-(2-((4-aminobicyclo[2.2.2]octan-1-yl)amino)-8-ethylquinazolin-6-yl)-2-fluorophenyl)-2-chlorobenzene-sulfonamide], the IC50 in test [1] is at most 5 nM. In test [2], the EC50 is at most 5 nM.
Take `N[C@H]1CC[C@H](Nc2ncc3cc(-c4ccc(NS(=O)(=O)c5ccccc5Cl)cc4F)ccc3n2)CC1` [Compound 48, N-(4-(2-(((1r,4r)-4-amiocyclohexyl)amino)quinazolin-6-yl)-3-fluorophenyl)-2-chlorobenzene-sulfonamide]: in test [1], the IC50 is at most 5 nM. Further, the EC50 in test [2] was in the range of 5 to 50 nM.
With `COc1nc(NS(=O)(=O)c2ccccc2Cl)ccc1-c1cc(C(F)(F)F)c2nc(N[C@H]3CC[C@H](N(C)C)CC3)ncc2c1` [Compound 135, 2-chloro-N-(5-(2-(((1r,4r)-4-(dimethylamino)cyclohexyl)amino)-8-(trifluoromethyl)quinazolin-6-yl)-6-methoxypyridin-2-yl)benzenesulfonamide], the IC50 in test [1] was at most 5 nM. Moreover, in test [2], the 50% effective concentration (EC50) was at most 5 nM.
